Literature values in patent US20250017885A1, “TREATMENT OF INCLUSION BODY MYOSITIS WITH PHENYLBUTYRATE AND MONITORING OF TREATMENT” (University of Kansas, priority 2023, published 2025).
Read-outs that look alike come from different tables or passages of the source.

Test system: cultured human muscle fibers
Conditions: cultured human muscle fibers with experimentally-impaired autophagy, Nogalska et al. 2014, cited from earlier work

In the case of `O=C([O-])CCCc1ccccc1.[Na+]` [NaPBA, Sodium phenylbutyrate], the “Aβ42 and Aβ42 oligomers” value is given as “decreased Aβ42 and its oligomers”, the “Lysosomal dysfunction / lysosomal activity” value is given as “improved lysosomal activity” and the Muscle-fiber vacuolization is given as “virtually prevented muscle-fiber vacuolization”. For the same compound, the γ-secretase activity was “decreased γ-secretase activity” and the “Lysosomal dysfunction / lysosomal activity” value (listed as NaPB) was “reverses lysosomal dysfunction”.
